Results reported in patent US9561231B2 (AbbVie Inc., priority 2012, dated 2017).
Read-outs that look alike come from different tables or passages of the source.

Key:
[1] = biological target: T1, first (BD1: amino acids K57-E168) bromodomain of BRD4 (Homo sapiens, UniProt O60885); assay: TR-FRET bromodomain binding assay, BRD4 BD1; conditions: Ki calculated from IC50, probe Kd and probe concentration, read-out: TR-FRET Binding Ki: BRD4 (BDI_K57-E168)
T1 construct: His-tagged first (BD1: amino acids K57-E168)
Summary of the method: (§1)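 His-tagged BRD4 BD1 (K57-E168) or BD2 ([…]) displacing an Alexa647-labelled BET-inhibitor probe in 20 mM sodium phosphate pH 6.0, 50 mM NaCl, 1 mM EDTA, 0.01% Triton X-100, 1 mM DTT.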

[2] = biological target: T2, second (BD2: amino acids E352-E168) bromodomain of BRD4 (Homo sapiens, UniProt O60885); assay: TR-FRET bromodomain binding assay, BRD4 BD2; conditions: Ki calculated from IC50, probe Kd and probe concentration, read-out: TR-FRET Binding Ki: BRD4 (BDII_E352-M457)
T2 construct: protocol
Summary of the method: as §1

[3] = tested on: breast cancer cell line MX-1; assay: MX-1 cell line proliferation assay (3-day); format: cell-based; conditions: Homo sapiens, MX1, MX-1 cells, Cell Titer Glo, read-out: Cellular proliferation: EC50
Summary of the method: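 EC50 derived by sigmoidal fitting of Cell Titer Glo signal relative to DMSO controls. Compound, 3 μM down to 0.0001 μM final in 3-fold steps, was added to adhered MX-1 cells (5000/well, RPMI + 10% FBS) for a 3-day incubation at 37° C.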

[4] = TR-FRET assay protocol (A-G, compound concentration range)
[5] = TR-FRET assay protocol (D, E or G) per compound

Compound	Ki [1, 4] [nM]	Ki [2, 4] [nM]	EC50 ([3]; 72 h incubation) [nM]	Ki [1, 5] [nM]	Ki [2, 5] [nM]	EC50 ([3]; 72 hours with compound) [nM]
CC1CCN(Cc2ccc(-c3cc(=O)n(C)nc3-c3ccccc3Oc3ccccc3)cc2)CC1 [Example 68, 2-methyl-5-{4-[(4-methylpiperidin-1-yl)methyl]phenyl}-6-(2-phenoxyphenyl)pyridazin-3(2H)-one]	63.1	71.9	1110	–	–	–
CN1CCN(Cc2ccc(-c3cc(=O)n(C)nc3-c3cc(NS(C)(=O)=O)ccc3Oc3ccccc3)cc2)CC1 [Example 62, N-[3-(1-methyl-4-{4-[(4-methylpiperazin-1-yl)methyl]phenyl}-6-oxo-1,6-dihydropyridazin-3-yl)-4-phenoxyphenyl]methanesulfonamide]	7.49	5.13	281	–	–	–
CNC(=O)c1ccc(-c2cc(=O)n(C)nc2-c2ccccc2Oc2ccccc2)cc1 [Example 127, N-methyl-4-[1-methyl-6-oxo-3-(2-phenoxyphenyl)-1,6-dihydropyridazin-4-yl]benzamide]	249	139	> 3000	–	–	–
Cn1cc(-c2cc(NS(C)(=O)=O)ccc2Oc2cc(F)cc(F)c2)ccc1=O [Example 242, N-[4-(3,5-difluorophenoxy)-3-(1-methyl-6-oxo-1,6-dihydropyridin-3-yl)phenyl]methanesulfonamide]	45	338	556	–	–	–
Cn1nc(-c2ccccc2Oc2ccccc2)c(-c2ccnc(F)c2)cc1=O [Example 54, 5-(2-fluoropyridin-4-yl)-2-methyl-6-(2-phenoxyphenyl)pyridazin-3(2H)-one]	4120	356	4240	–	–	–
CCOc1cc(=O)n(C)cc1-c1cc(CS(=O)(=O)CC)ccc1Oc1ccc(F)cc1F [Example 379, 5-{2-(2,4-difluorophenoxy)-5-[(ethylsulfonyl)methyl]phenyl}-4-ethoxy-1-methylpyridin-2(1H)-one]	–	–	–	62.1	16.1	126
CCS(=O)(=O)Nc1ccc(Oc2ccc(F)cc2F)c(-c2cn(C)c(=O)cc2OCC(C)C)c1 [Example 290, N-{4-(2,4-difluorophenoxy)-3-[1-methyl-4-(2-methylpropoxy)-6-oxo-1,6-dihydropyridin-3-yl]phenyl}ethanesulfonamide]	12	3.22	138	–	–	–
COc1cc(=O)n(C)nc1-c1cc(NS(=O)(=O)Cc2ccccc2)ccc1Oc1ccccc1 [Example 27, N-[3-(4-methoxy-1-methyl-6-oxo-1,6-dihydropyridazin-3-yl)-4-phenoxyphenyl]-1-phenylmethanesulfonamide]	296	78.9	720	–	–	–
COc1cc(=O)n(C)nc1-c1cc(NS(=O)(=O)CC(F)(F)F)ccc1Oc1ccccc1 [Example 25, 2,2,2-trifluoro-N-[3-(4-methoxy-1-methyl-6-oxo-1,6-dihydropyridazin-3-yl)-4-phenoxyphenyl]ethanesulfonamide]	97.4	12.5	450	–	–	–
CCCc1cc(=O)n(C)cc1-c1cc(NS(=O)(=O)CC)ccc1Oc1ccc(F)cc1F [Example 359, N-[4-(2,4-difluorophenoxy)-3-(1-methyl-6-oxo-4-propyl-1,6-dihydropyridin-3-yl)phenyl]ethanesulfonamide]	12.6	5.1	112	–	–	–
CCOc1cc(=O)n(C)cc1-c1cc(NS(=O)(=O)Cc2ccccc2F)ccc1Oc1ccc(F)cc1F [Example 351, N-[4-(2,4-difluorophenoxy)-3-(4-ethoxy-1-methyl-6-oxo-1,6-dihydropyridin-3-yl)phenyl]-1-(2-fluorophenyl)methanesulfonamide]	25.7	29.8	360	–	–	–
Cn1cc(-c2cc(NS(C)(=O)=O)ccc2Oc2ccc(F)cc2)ccc1=O [Example 232, N-[4-(4-fluorophenoxy)-3-(1-methyl-6-oxo-1,6-dihydropyridin-3-yl)phenyl]methanesulfonamide]	27.8	101	357	–	–	–
CCS(=O)(=O)Nc1ccc(Oc2ccc(F)cc2F)c(-c2cn(C)c(=O)cc2-c2ccc(C)s2)c1 [Example 407, N-{4-(2,4-difluorophenoxy)-3-[1-methyl-4-(5-methylthiophen-2-yl)-6-oxo-1,6-dihydropyridin-3-yl]phenyl}ethanesulfonamide]	–	–	–	6.92	2.06	72.3
Cc1cc(-c2cc(NS(C)(=O)=O)ccc2OC2CCC(F)(F)CC2)c[nH]c1=O [Example 266, N-{4-[(4,4-difluorocyclohexyl)oxy]-3-(5-methyl-6-oxo-1,6-dihydropyridin-3-yl)phenyl}methanesulfonamide]	58.3	341	> 3000	–	–	–
CCOc1cc(=O)n(C)cc1-c1cc(NS(=O)(=O)CC)ccc1OC1CCC(F)(F)CC1 [Example 385, N-{4-[(4,4-difluorocyclohexyl)oxy]-3-(4-ethoxy-1-methyl-6-oxo-1,6-dihydropyridin-3-yl)phenyl}ethanesulfonamide]	–	–	–	55.3	140	254
CCS(=O)(=O)Nc1ccc(Oc2ccc(F)cc2F)c(-c2cn(C)c(=O)cc2OC2CC3(CNC3)C2)c1 [Example 326, N-{3-[4-(2-azaspiro[3.3]hept-6-yloxy)-1-methyl-6-oxo-1,6-dihydropyridin-3-yl]-4-(2,4-difluorophenoxy)phenyl}ethanesulfonamide]	2.61	17.5	2980	–	–	–
Cn1nc(-c2ccccc2Oc2ccccc2)c(-c2ccc(NS(C)(=O)=O)cc2)cc1=O [Example 119, N-{4-[1-methyl-6-oxo-3-(2-phenoxyphenyl)-1,6-dihydropyridazin-4-yl]phenyl}methanesulfonamide]	135	63.6	615	–	–	–
CCOc1cc(=O)n(C)cc1-c1cc(NC(=O)c2cncs2)ccc1Oc1ccc(F)cc1F [Example 411, N-[4-(2,4-difluorophenoxy)-3-(4-ethoxy-1-methyl-6-oxo-1,6-dihydropyridin-3-yl)phenyl]-1,3-thiazole-5-carboxamide]	–	–	–	61.3	47	254
CCOc1cc(=O)n(C)cc1-c1cc(NS(=O)(=O)CC)ccc1OCCC1CC1 [Example 383, N-[4-(2-cyclopropylethoxy)-3-(4-ethoxy-1-methyl-6-oxo-1,6-dihydropyridin-3-yl)phenyl]ethanesulfonamide]	–	–	–	43.2	82.8	83.6
CCCS(=O)(=O)Nc1ccc(Oc2ccccc2)c(-c2nn(C)c(=O)cc2OC)c1 [Example 24, N-[3-(4-methoxy-1-methyl-6-oxo-1,6-dihydropyridazin-3-yl)-4-phenoxyphenyl]propane-1-sulfonamide]	326	108	1010	–	–	–
Cn1cc(-c2cc(NC(=O)CNC(=O)OC(C)(C)C)ccc2Oc2ccccc2)ccc1=O [Example 252, tert-butyl (2-{[3-(1-methyl-6-oxo-1,6-dihydropyridin-3-yl)-4-phenoxyphenyl]amino}-2-oxoethyl)carbamate]	297	695	> 3000	–	–	–
CCS(=O)(=O)Nc1ccc(Oc2ccc(F)cc2F)c(-c2cn(C)c(=O)cc2-c2ccc(N3CCOCC3)cc2)c1 [Example 284, N-[4-(2,4-difluorophenoxy)-3-{1-methyl-4-[4-(morpholin-4-yl)phenyl]-6-oxo-1,6-dihydropyridin-3-yl]phenyl}ethanesulfonamide]	5.75	1.84	44.3	–	–	–
